pEC50: −log10 of the molar value.
Assays:
Plasmodium falciparum [1] = assay: Antimalarial activity against chloroquine, mefloquine, pyrimethamine and atovaquone-resistant Plasmodium falciparum TM90-C2B infected in human A+ erythrocytes after 72 hrs by SYBR Green I assay; type: functional, organism-based
Plasmodium falciparum [2] = assay: Antimalarial activity against chloroquine and pyrimethamine-resistant Plasmodium falciparum W2 infected in human A+ erythrocytes after 72 hrs by SYBR Green I assay; type: functional, organism-based; conditions: W2, 72 h
J774 = assay: Cytotoxicity against mouse J774 cells; type: cell-based
[3] = Lipophilicity, log D of the compound at pH 7.4; conditions: buffer
[4] = Passive transcellular permeability of the compound at pH 7.4 by PAMPA; type: ADME; conditions: for Papp: read-out: permeability
[5] = Passive transcellular permeability of the compound at pH 4 by PAMPA; type: ADME; conditions: for Papp: read-out: permeability
in vitro = conditions: mouse, J774 cells
Description: Cytotoxicity index, ratio of EC50 for mice (Mus musculus) J774 cells to EC50 for chloroquine, mefloquine, pyrimethamine and atovaquone-resistant Plasmodium falciparum TM90-C2B

SMILES	pEC50 (Plasmodium falciparum [1])	pEC50 (Plasmodium falciparum [2])	pEC50 (J774)	logD [3]	Papp [4] [×10⁻⁶ cm/s]	Papp [5] [×10⁻⁶ cm/s]	selectivity ratio (in vitro)	permeability [4] [×10⁻⁶ cm/s]	permeability [5] [×10⁻⁶ cm/s]
Cc1c(-c2ccccc2)c(=O)c2cc(Cl)ccc2n1C	< 5.06	< 5.06							
COc1c(-c2ccccc2)c(C)nc2ccc(Cl)cc12	< 5.06	< 5.06							
COc1cc2[nH]c(C)c(CC(C)C)c(=O)c2cc1Cl	7.20	7.06	< 4.45	2.99	368	496			
Cc1nc2ccccc2c(OCc2ccccc2)c1Br				2.52	794	99.7			
COc1cc2[nH]c(C)c(Br)c(=O)c2cc1Cl				0	152	125			
COc1ccc2c(=O)cc(C)[nH]c2c1	4.90	< 4.88	< 4.28	1.2	8.91		> 4.2		
Cc1cc(=O)c2ccccc2[nH]1	< 4.20	< 4.35	< 4.20		1.54	1.56			
Cc1[nH]c2ccccc2c(=O)c1/C=C/c1ccccc1	< 5.04	< 5.04	< 4.44	4.4	224	222	> 4		
Cc1[nH]c2ccc(F)cc2c(=O)c1Br	6.90	6.03	< 4.41	1.61	18.3	16.2	> 313		
CCCCC#Cc1c(C)[nH]c2ccc(OC)cc2c1=O	< 5.04	< 5.04	< 4.43	5.25			> 4	2438.2	1020.6
CCCCC#Cc1c(C)[nH]c2ccccc2c1=O	< 4.98	5.08	5.05	5.44		500		2137.05	
COc1ccc2[nH]c(C)c(-c3ccccc3)c(=O)c2c1	< 5.03	< 5.03	< 4.42	1.61	126		> 4		
COc1ccc2c(=O)c(-c3ccccc3)c(C)[nH]c2c1	6.57	6.54	< 4.42	1.56	9.89		> 140		
COc1cccc2c(=O)c(-c3ccccc3)c(C)[nH]c12	5.78	5.69	< 4.42	1.73	37	33.9	> 22.6		
Cc1[nH]c2c(Cl)c(Cl)ccc2c(=O)c1-c1ccccc1	< 5.09	< 5.09	< 4.48	3.27	197	189			
COc1cc2[nH]c(C)c(Cc3ccccc3)c(=O)c2cc1Cl	7.16	7.03	< 4.50	1.99	566	575			
CCCCC/C=C/c1c(C)[nH]c2cc(OC)c(Cl)cc2c1=O	7.97	7.50	< 4.51	3.57	46.3	280	> 2950		
Cc1ccc2[nH]c(C)c(Br)c(=O)c2c1	6.58	6.54	4.71	1.07	42.2	26.4	74.9		
CCCCCCCc1c(C)nc2ccccc2c1O	6.98	7.03	5.29	3.39			48.3		
CCCCCCCCCc1c(C)[nH]c2ccccc2c1=O	7.40	7.62	5.55	4.33			69.9		
O=C1C(O)=C([C@H]2CC[C@H](c3ccc(Cl)cc3)CC2)C(=O)c2ccccc21 [ATOVAQUONE]	5.21	9.27							
CCN(CC)CCCC(C)Nc1ccnc2cc(Cl)ccc12 (stereo not drawn) [CHLOROQUINE]	7.32	6.79							
